| melting point | SMILES |
| --- | --- |
| 177 to 178 °C | O=C(CC(C(=O)O)c1c[nH]c2cc(OCc3ccccc3)ccc12)c1ccc(F)cc1F (centres unmarked) [Compound (4-2), 2-(6-benzyloxy-1H-indol-3-yl)-4-(2,4-difluorophenyl)-4-oxo-butanoic Acid] |
| 181 to 183 °C | COc1cccc2c(C(CC(=O)c3ccc(F)cc3F)C(=O)O)c[nH]c12 (centres unmarked) [Compound (5-2), 4-(2,4-difluorophenyl)-2-(7-methoxy-1H-indol-3-yl)-4-oxo-butanoic Acid] |
| 225 to 227 °C | O=C(CC(C(=O)O)c1c[nH]c2c(Cl)cccc12)c1ccc(F)cc1F (centres unmarked) [Compound (5-1), 2-(7-chloro-1H-indol-3-yl)-4-(2,4-difluorophenyl)-4-oxo-butanoic Acid] |
| 133.6 to 136.8 °C | CCCOc1ccc2[nH]cc(CC(=O)O)c2c1 [compound #38, 5-(1-Propoxy)-3-indoleacetic Acid] |
| 192 to 193 °C | Cn1cc(C(CC(=O)c2ccc(F)cc2F)C(=O)O)c2ccccc21 (centres unmarked) [Compound (6-1), 4-(2,4-difluorophenyl)-2-(1-methyl-1H-indol-3-yl)-4-oxo-butanoic Acid] |
| 139 to 141 °C | CCCn1cc(C(CC(=O)c2ccc(C)cc2C)C(=O)O)c2ccccc21 (centres unmarked) [compound 6, 4-(2,4-Dimethylphenyl)-2-(1-propyl-1H-indol-3-yl)-4-oxo-butanoic Acid] |
| 210 to 214 °C | O=C(CC(C(=O)O)c1c[nH]c2cc(F)ccc12)c1ccc(F)cc1F (centres unmarked) [Compound (4-1), 4-(2,4-difluorophenyl)-2-(6-fluoro-1H-indol-3-yl)-4-oxo-butanoic Acid] |
| 149 to 150 °C | O=C(CC(C(=O)O)c1c[nH]c2ccccc12)c1ccccc1 (centres unmarked) [compound #20, 4-Phenyl-2-(1H-indol-3-yl)-4-oxo-butanoic Acid] |
| 86 to 92.7 °C | CCOc1ccc2[nH]cc(CC(=O)O)c2c1 [compound #37, 5-Ethoxy-3-indoleacetic Acid] |

The next lines start with the molecule.

| SMILES | melting point |
| --- | --- |
| O=C(CC(C(=O)O)c1c[nH]c2ccc(Cl)cc12)c1ccc(F)cc1F (centres unmarked) [Compound (3-2), 2-(5-chloro-1H-indol-3-yl)-4-(2,4-difluorophenyl)-4-oxo-butanoic Acid] | 236 to 239 °C |
| CCCCOc1ccc2[nH]cc(CC(=O)O)c2c1 [compound #39, 5-(1-Butoxy)-3-indoleacetic Acid] | 137.8 to 141.1 °C |
| O=C(CC(C(=O)O)c1c[nH]c2ccc(F)cc12)c1ccc(F)cc1F (centres unmarked) [Compound (3-1), 4-(2,4-difluorophenyl)-2-(5-fluoro-1H-indol-3-yl)-4-oxo-butanoic Acid] | 207 to 208 °C |
| O=C(CC(C(=O)O)c1c[nH]c2cccc(Cl)c12)c1ccc(F)cc1F (centres unmarked) [Compound (2-1), 2-(4-chloro-1H-indol-3-yl)-4-(2,4-difluorophenyl)-4-oxo-butanoic Acid] | 203 to 204 °C |
| Cc1ccc2[nH]cc(C(CC(=O)c3ccc(F)cc3F)C(=O)O)c2c1 (centres unmarked) [Compound (3-3), 4-(2,4-difluorophenyl)-2-(5-methyl-1H-indol-3-yl)-4-oxo-butanoic Acid] | 200 to 202 °C |
| CCCCOc1ccc2cccc(CC(=O)O)c2c1 [compound #33, α-(7-Butoxy-1-naphthalenyl)-acetic Acid] | 102 to 104 °C |
| COc1ccc2[nH]cc(C(CC(=O)c3ccc(F)cc3F)C(=O)O)c2c1 (centres unmarked) [Compound (3-4), 4-(2,4-difluorophenyl)-2-(5-methoxy-1H-indol-3-yl)-4-oxo-butanoic Acid] | 205 to 206 °C |
| CCCCCOc1ccc2cccc(CC(=O)O)c2c1 [compound #34, α-(7-Pentoxy-1-naphthalenyl)-acetic Acid] | 104 to 106 °C |

Reference: patent US11147796B2, “Agent for preventing or ameliorating hearing impairment” (Tohoku University, priority 2017, dated 2021)
